How the values were obtained:
AMPK in Huh-7 cells = assay: Activation activity on AMPK in Huh-7 cells (Western Blot); type: cell-based; settings: 10 μM, 12 h, Western Blot gray scale, relative to DMSO = 1
Protocol: The activation activity of a compound on AMPK in Huh-7 cells was detected by using Western Blot.
Cell culture conditions: Huh-7 cells were cultured in an incubator with 5% CO2 at 37° C. in DMEM complete medium (containing 10% fetal calf serum and 1% streptomycin/penicillin).
Antibody: anti-AMPK (CST, 2532S); anti-pAMPK (CST, 2535S).
Western Blot experiment: the influence of the compound on phosphorylation level of the AMPK in the Huh-7 cells was detected: cells with more than 90% cells alive were taken for the experiment. In a 12-well plate, the Huh-7 cells were plated in the plate at 250000 cells per well, the plate was placed in the incubator with 5% CO2 at 37° C. for culture, an original culture medium was discarded after 12 h, a complete medium containing the pentacyclic triterpenoid saponin was added, a final concentration of subject pentacyclic triterpenoid saponin was set to be 10 μM, and an administration time was set to be 12 h. A positive control compound employs AICAR (100 μM), metformin (70 μM) or A-769662 (100 μM). Then proteins were extracted for Western Blot detection.
Experimental result: a Western Blot experimental result was subjected to gray scale scanning, a p-AMPK/AMPK ratio of negative control DMSO was defined as 1, and a p-AMPK/AMPK ratio of the subject compound was a relative ratio of a negative control group. The larger the numerical value was, the stronger the activation activity of the AMPK of the compound was.

[1] = test system: ulcerative colitis model mice induced by DSS; assay: Dextran sulphate sodium salt (DSS) induced ulcerative colitis model mice; type: in vivo, mouse; settings: for DAI scores of the treatment group: DSS-induced mice, dose not given, vs model group
Protocol: C57BL/6 male mice with 6-8 weeks old were selected; a control group was fed with purified water; and a model group, a treatment group and a positive control group were fed with purified water containing 2% dextran sulphate sodium salt (DSS) (36000-50000 M.Wt) for 7 days and then with the purified water for 3 days, and drug intervention was conducted at the same time. The mice in the control group and the model group were orally administered with carboxymethyl cellulose sodium as a placebo, the mice in the treatment group were orally administered with the ziyuglycoside II (purchased from Shanghai Boka Chemistry Technology Co., Ltd) (with a dosage of 5 mg/kg), and the mice in the positive control group were orally administered with 5-aminosalicylic acid as a clinical drug (5-ASA, purchased from Shanghai Sangon Biological Engineering Co., Ltd) (with a dosage of 100 mg/kg). In the administration process, weight changes, feces characters and hematochezia conditions of the mice were observed and recorded every day and were scored, and disease activity indexes were calculated (Disease activity index, DAI).
A scoring rule and a calculation method were as follows: DAT=(weight score+diarrhea score+occult blood score)/3, wherein weight score: 0 (weight gained or unchanged), 1 (weight lost by 1-5%), 2 (weight lost by 6-10%), 3 (weight lost by 11-15%), 4 (weight lost by 15% or above); diarrhea score: 0 (normal feces), 2 (soft feces), 4 (feces sticking anuses or diarrhea); and occult blood score: 0 (negative occult blood), 2 (positive occult blood), and 4 (visible bleeding). Comparing differences in DAI of various groups, it can be known that the ziyuglycoside II has significant prevention and treatment effects on ulcerative colitis of the mice modeled by the dextran sulphate sodium salt (DSS).
The above mice were sacrificed by cervical dislocation at day 11, colon tissues were harvested, lengths of the colon tissues were measured for statistical summary, and differences in colon length of various groups were compared, from which, the ziyuglycoside II has significant prevention and treatment effect on the ulcerative colitis model mice.
Middle segments, with lengths of about 1 cm, of the colon tissues of the above mice were selected, soaked in a formalin solution for fixing overnight, embedded with paraffin and sliced, and the slices were subjected to HE staining. […] Particularly, compared with the positive drug group, the ziyuglycoside II has the advantage of maintaining a thickness of a muscular layer.
10 mg of proximal rectum segments of the colon tissues of the above mice were selected, PBS was added for homogenization, and centrifugation was conducted for taking a supernate. The supernate was subjected to ELISA detection, and protein quantification was conducted for inflammatory factors TNF-α and IL-lb.
10 mg of colon tissues of the above mice were selected for detection of ROS therein.
When the ulcerative colitis occurs, the inflammatory factors may destruct tight junction between intestinal tracts, and destruction of the tight junction enables functions of mucosal barriers to be lost and accelerates development of the diseases. 5 mg of colon tissues of the above mice were selected for qPCR analysis. […] This hints that the ziyuglycoside II further has the efficacy of increasing the expression level of the tight junction and then protecting a structure of each colon. […] Therefore, the ziyuglycoside II is expected to be useful for preparing the drug for preventing or treating the inflammatory bowel diseases such as the ulcerative colitis.

[2] = test system: human ADPKD cyst lining epithelial cell lines WT9-12; assay: Proliferation of polycystic kidney epithelial cells (CCK-8 method); type: cell-based; settings: 48 h; for inhibition at 10 µM: read-out: Inhibition rate (%)
Text: Cell and reagent: complete media for human ADPKD cyst lining epithelial cell lines WT9-12 and DMEM were purchased from ATCC Company; fetal calf serums were purchased from Gibco Company; Cell Counting Kit-8 was purchased from DOJINDO Company; Click-iT® EdU Imaging Kits were purchased from Invitrogen™ Thermo Fisher Scientific Company; Caspase -3/CPP32 Colorimetric Assay Kit was purchased from BioVision Company; Annexin V/PI double-staining flow type cell apoptosis detection kits were purchased from Bender Company; and anti-Phospho-(AMPKa, mTOR, p70S6K, 4E-BP1) antibodies were purchased from Cell Signaling Technology Company.
The influence of 2-DG on proliferation of the polycystic kidney epithelial cells was detected with a CCK-8 method: a DMEM complete medium containing 10% fetal calf serum (FBS) was prepared. The polycystic kidney epithelial cells were cultured in an incubator with 5% CO2 at 37° C. after being recovered, a solution was replaced every other day, the polycystic kidney epithelial cells were passaged every 2-3 days, and the cells were in a growing state of adhering to the wall. After trypsin enzyme digestion, cells were resuspended by using a complete medium, the concentration of a polycystic kidney epithelial cell suspension was regulated to be 3×10^7/L, the polycystic kidney epithelial cell suspension was inoculated to 96-well plate by […] per well for culture for 24 h, and the suspension was replaced by a culture medium containing 0.1% FBS for synchronization for 24 h.

[3] = DSS mice, 5 mg/kg orally, vs model group (FIG. 12 A)
[4] = DSS mice, 5 mg/kg, vs model group (FIG. 12 C)
[5] = Homo sapiens, Epithelial cell, polycystic kidney epithelial cells, 10 μM, CCK-8, n = 6

Compound	pAMPK/AMPK ratio (AMPK in Huh-7 cells)	DAI scores of the treatment group [1]	inhibition at 10 µM [2, 5]	other results
C[C@@H]1CC[C@]2(C(=O)O)CC[C@]3(C)C(=CC[C@@H]4[C@@]5(C)CC[C@H](O[C@@H]6OC[C@H](O)[C@H](O)[C@H]6O)C(C)(C)[C@@H]5CC[C@]43C)[C@@H]2[C@]1(C)O [(XIII), ziyuglycoside II]	2.51	obviously lower than those of the model group	72.1 ± 2%	content of the ROS in colon tissues ([1]; DSS mice, 5 mg/kg (FIG. 12 B)): significantly lowered; colon histopathology (HE staining) ([1]; DSS mice, 5 mg/kg orally (FIG. 11)): infiltration of the inflammatory cells is reduced; colon lengths ([1]; DSS mice, 5 mg/kg orally, day 11, vs model group (FIG. 10 B)): significantly larger than those of the model group; DAI scores (disease activity index) ([1]; DSS mice, 5 mg/kg orally, vs model group (FIG. 10 A)): obviously lower than that of the model group; expression level of inflammatory factor IL-1 in colon tissue (ELISA) [1, 3]: significantly lower than those of the model group; expression level of inflammatory factor TNF-α in colon tissue (ELISA) [1, 3]: significantly lower than those of the model group; expression level of Claudin-1 in colon (qPCR) [1, 4]: significantly increased; expression level of Occludin in colon (qPCR) [1, 4]: significantly increased; expression level of ZO-1 in colon (qPCR) [1, 4]: significantly increased
CC1(C)CC[C@]2(C(=O)O[C@@H]3O[C@H](CO[C@@H]4O[C@H](CO)[C@@H](O)[C@H](O)[C@H]4O)[C@@H](O)[C@H](O)[C@H]3O)CC[C@]3(C)C(=CC[C@@H]4[C@@]5(C)CC[C@H](O[C@@H]6OC[C@H](O)[C@H](O)[C@H]6O)[C@@](C)(CO)[C@@H]5CC[C@]43C)[C@@H]2C1 [(II), asperosaponin VI]	2.90	obviously lower than those of the model group		IC50 ([2]; Homo sapiens, Epithelial cell, WT9-12 cells, CCK-8 (FIG. 15), read-out: median inhibitory concentration (IC50), proliferation of the polycystic kidney epithelial cells): 3.2 µM
C[C@@H]1O[C@@H](O[C@H]2[C@H](O[C@H]3CC[C@@]4(C)[C@@H](CC[C@]5(C)[C@@H]4CC=C4[C@@H]6CC(C)(C)CC[C@]6(C(=O)O)CC[C@]45C)[C@]3(C)CO)OC[C@H](O)[C@@H]2O)[C@H](O)[C@H](O)[C@H]1O [(X), α-hederin]	3.33	obviously lower than those of the model group	80.5 ± 3.2%	
C[C@H]1O[C@@H](O[C@H]2CC[C@@]3(C)[C@@H](CC[C@]4(C)[C@@H]3C=C[C@]35OC[C@@]6(CCC(C)(C)C[C@H]63)[C@H](O)C[C@]54C)[C@]2(C)CO)[C@H](O)[C@@H](O[C@@H]2O[C@H](CO)[C@@H](O)[C@H](O)[C@H]2O)[C@H]1O [(VIII), saikosaponin D]	2.0	obviously lower than those of the model group		
C[C@@H]1O[C@@H](O[C@H]2[C@H](O[C@H]3CC[C@@]4(C)[C@@H](CC[C@]5(C)[C@@H]4CC=C4[C@@H]6CC(C)(C)CC[C@]6(C(=O)O[C@@H]6O[C@H](CO[C@@H]7O[C@H](CO)[C@@H](O[C@@H]8O[C@@H](C)[C@H](O)[C@@H](O)[C@H]8O)[C@H](O)[C@H]7O)[C@@H](O)[C@H](O)[C@H]6O)CC[C@]45C)[C@]3(C)CO)OC[C@H](O)[C@@H]2O)[C@H](O)[C@H](O)[C@H]1O [(XI), hederacoside C]	1.95	obviously lower than those of the model group		Inhibition rate (%) ([2]; polycystic kidney epithelial cells, 10 μM, CCK-8, n = 6): 64.4 ± 2.6 %
CC1(C)CC[C@]2(C(=O)O[C@@H]3O[C@H](CO)[C@@H](O)[C@H](O)[C@H]3O)CC[C@]3(C)C(=CC[C@@H]4[C@@]5(C)CC[C@H](O[C@@H]6O[C@H](C(=O)O)[C@@H](O)[C@H](O)[C@H]6O[C@@H]6O[C@H](CO)[C@@H](O)[C@H](O)[C@H]6O)C(C)(C)[C@@H]5CC[C@]43C)[C@@H]2C1 [(I), ginsenoside Ro]	2.39	obviously lower than those of the model group	74.4 ± 2.3%	
C[C@@H]1CC[C@]2(C(=O)O[C@@H]3O[C@H](CO)[C@@H](O)[C@H](O)[C@H]3O)CC[C@]3(C)C(=CC[C@@H]4[C@@]5(C)CC[C@H](O[C@@H]6OC[C@H](O)[C@H](O)[C@H]6O)C(C)(C)[C@@H]5CC[C@]43C)[C@@H]2[C@]1(C)O [(XII), ziyuglycoside I]	2.45	obviously lower than those of the model group	69.2 ± 1.7%	
C[C@H]1O[C@@H](O[C@H]2CC[C@@]3(C)[C@@H](CC[C@]4(C)[C@@H]3C=C[C@]35OC[C@@]6(CCC(C)(C)C[C@H]63)[C@@H](O)C[C@]54C)[C@]2(C)CO)[C@H](O)[C@@H](O[C@@H]2O[C@H](CO)[C@@H](O)[C@H](O)[C@H]2O)[C@H]1O [(VII), saikosaponin A]	1.76	obviously lower than those of the model group		
